The values that follow come from patent publication US5002952A, “Readily absorbed pharmaceutical composition” (priority 1986, dated 1991).

The data set concerns L-1210 leukemia cells. The experiment in a line: Antitumour activities (survival of BDF1 mice inoculated intraperitoneally with L-1210 leukemia cells, oral test drug).

Protocol: To BDF1 mice (male, 20-22 g), L-1210 leukemia cells were intraperitoneally inoculated in an amount of 1×10^6 cells/mouse. One day later and 4 days later, a test drug was orally administered. […] Therefore, in this test, Compound No. 3, and a 10 w/v% HCO60 solution were mixed, and pulverized in a wet system to obtain a liquid suspension, and the liquid suspension was administered to each mouse in an amount of 0.5 ml.
The activity was evaluated by a survival rate [T/C (%)]as compared with a control group to which a physiological saline was administered, and T/C values are shown in Table 2.

As to `O=C(NC(=O)c1ccccc1[N+](=O)[O-])Nc1ccc(Oc2ncc(Br)cn2)c(Cl)c1` [Compound No. 3], the “toxicity (T/C)” value (high dose region, composition wet pulverized with HCO60) is “less than 100%”. The “antitumour activity (in words)” value is listed as “no substantial antitumour activity was observed” (wet pulverized in the absence of HCO60, same dose) and “adequate antitumour activity” (wet pulverized together with the specific substance (HCO60)).
